{"source": "patent US11925655B2", "about": "“FAP-activated therapeutic agents, and uses related thereto” (Bach Biosciences, LLC, priority 2014, dated 2024)", "key": {"HEK-mFAP cells": {"tested_on": "HEK-mFAP cells", "assay": "CellTiter-Blue cell viability assay with HEK-mFAP cells", "type": "cell-based, human", "details": "Homo sapiens, 72 h"}, "HEK-Mock cells": {"tested_on": "HEK-Mock cells", "assay": "CellTiter-Blue cell viability assay with HEK-Mock cells", "type": "cell-based", "details": "Homo sapiens, 72 h"}, "FAP [1]": {"biological_target": "T1, FAP (Homo sapiens, UniProt Q12884)", "T1 sequence (Q12884 1-760)": "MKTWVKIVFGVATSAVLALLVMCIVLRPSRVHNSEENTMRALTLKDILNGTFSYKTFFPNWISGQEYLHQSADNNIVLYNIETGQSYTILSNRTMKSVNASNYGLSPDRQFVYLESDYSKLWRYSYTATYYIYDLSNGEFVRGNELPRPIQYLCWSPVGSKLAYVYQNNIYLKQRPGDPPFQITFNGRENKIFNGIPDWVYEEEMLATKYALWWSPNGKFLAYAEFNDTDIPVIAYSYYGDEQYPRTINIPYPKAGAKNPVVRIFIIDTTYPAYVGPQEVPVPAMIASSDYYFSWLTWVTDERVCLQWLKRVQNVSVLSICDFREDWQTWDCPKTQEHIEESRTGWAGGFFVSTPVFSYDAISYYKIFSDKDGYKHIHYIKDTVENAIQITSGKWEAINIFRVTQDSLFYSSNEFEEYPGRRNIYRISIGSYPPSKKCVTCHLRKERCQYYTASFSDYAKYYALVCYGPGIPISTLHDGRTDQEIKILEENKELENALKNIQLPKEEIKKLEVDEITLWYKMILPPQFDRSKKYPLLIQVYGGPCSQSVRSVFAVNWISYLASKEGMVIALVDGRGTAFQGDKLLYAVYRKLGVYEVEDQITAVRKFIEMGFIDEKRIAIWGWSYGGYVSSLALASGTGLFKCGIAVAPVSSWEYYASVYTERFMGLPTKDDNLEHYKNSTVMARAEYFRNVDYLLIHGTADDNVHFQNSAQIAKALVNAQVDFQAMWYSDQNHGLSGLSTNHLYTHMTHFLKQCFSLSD", "assay": "FAP digest of 5057DOX (kinetics)", "type": "biochemical"}, "FAP [2]": {"biological_target": "T1, FAP", "assay": "Selectivity of FAP over PREP (5057DOX activation by recombinant enzyme)", "type": "biochemical", "details": "240 nM 5057DOX, 12, 24 or 48 nM recombinant enzyme, 37° C., FIG. 12", "description": "Recombinant enzyme (FAP or PREP) was combined, at reaction concentration of 12 nM, 24 nM, or 48 nM, with 240 nM 5057DOX in FAP buffer (50 mM Tris-HCl, pH 7.4, 140 mM NaCl) and incubated at 37° C. Reactions were stopped at 0, 10, 20, or 30 minutes by addition of equal volume of 10 μM Val-boroPro (FAP inhibitor). Doxorubicin was measured by liquid chromatography/mass spectroscopy (LCMS)."}, "OVCAR-3": {"tested_on": "OVCAR-3", "assay": "CellTiter-Blue cell viability assay: OVCAR-3", "type": "cell-based", "details": "Homo sapiens, 5057DOX assay 5, 72 hour incubation"}, "SK-OV-3": {"tested_on": "SK-OV-3", "assay": "CellTiter-Blue cell viability assay: SK-OV-3", "type": "cell-based", "details": "Homo sapiens, 5057DOX assay 5, 72 hour incubation"}, "MCF-7": {"tested_on": "MCF-7", "assay": "CellTiter-Blue cell viability assay: MCF-7", "type": "cell-based", "details": "Homo sapiens, MCF7, 5057DOX assay 5, 72 hour incubation"}, "[3]": {"details": "5057DOX assay 2, 72 hour incubation, read-out: EC50 (prodrug + 25 nM PREP)"}, "[4]": {"details": "5057DOX assay 2, 72 hour incubation, read-out: EC50 (prodrug + 100 uM 2054-9)"}, "[5]": {"details": "5057DOX assay 2, 72 hour incubation, read-out: EC50 (prodrug alone)"}, "[6]": {"details": "5057DOX assay 3, 72 hour incubation, read-out: EC50 (prodrug + 100 uM 2054-9)"}, "[7]": {"details": "5057DOX assay 3, 72 hour incubation, read-out: EC50 (prodrug + 100 uM 3099-15)"}, "[8]": {"details": "5057DOX assay 3, 72 hour incubation, read-out: EC50 (prodrug alone)"}, "[9]": {"details": "5057DOX assay 4, 72 hour incubation, read-out: EC50 (prodrug + 100 uM 5057)"}, "[10]": {"details": "5057DOX assay 4, 72 hour incubation, read-out: EC50 (prodrug alone)"}, "[11]": {"details": "read-out: EC50 (prodrug + 25 nM FAP)"}, "[12]": {"details": "read-out: EC50 (prodrug + 100 uM 5057)"}}, "note": "Read-outs that look alike come from different tables or passages of the source.", "data": [{"smiles": "COc1cccc2c1C(=O)c1c(O)c3c(c(O)c1C2=O)C[C@@](O)(C(=O)CO)C[C@@H]3O[C@H]1C[C@H](NC(=O)[C@@H]2CC(F)(F)CN2C(=O)CNC(=O)c2ccnc3ccccc23)[C@H](O)[C@H](C)O1", "note": "[Compound 5057DOX]", "values": [{"measurement": "EC50", "setting": "HEK-mFAP cells; [3]", "value": 110, "unit": "nM"}, {"measurement": "EC50", "setting": "HEK-mFAP cells; [4]", "value": 740, "unit": "nM"}, {"measurement": "EC50", "setting": "HEK-mFAP cells; 5057DOX assay 2, 72 hour incubation, read-out: EC50 (prodrug + 100 uM 3099-15)", "value": "> 10000", "unit": "nM"}, {"measurement": "EC50", "setting": "HEK-mFAP cells; [5]", "value": 140, "unit": "nM"}, {"measurement": "EC50", "setting": "HEK-mFAP cells; [6]", "value": 5300, "unit": "nM"}, {"measurement": "EC50", "setting": "HEK-mFAP cells; [7]", "value": "> 100000", "unit": "nM"}, {"measurement": "EC50", "setting": "HEK-mFAP cells; [8]", "value": 600, "unit": "nM"}, {"measurement": "EC50", "setting": "HEK-mFAP cells; [9]", "value": "> 100000", "unit": "nM"}, {"measurement": "EC50", "setting": "HEK-mFAP cells; [10]", "value": 770, "unit": "nM"}, {"measurement": "EC50", "setting": "HEK-mFAP cells; 5057DOX assay 8, 72 hour incubation, read-out: EC50 (prodrug + 100 uM 5057)", "value": "> 100000", "unit": "nM"}, {"measurement": "EC50", "setting": "HEK-mFAP cells; 5057DOX assay 8, 72 hour incubation, read-out: EC50 (prodrug alone)", "value": 1100, "unit": "nM"}, {"measurement": "EC50", "setting": "HEK-Mock cells; 5057DOX assay 1, 72 hour incubation, read-out: EC50 (prodrug + 25 nM FAP)", "value": 36, "unit": "nM"}, {"measurement": "EC50", "setting": "HEK-Mock cells; 5057DOX assay 1, 72 hour incubation, read-out: EC50 (prodrug + 25 nM PREP)", "value": 250, "unit": "nM"}, {"measurement": "EC50", "setting": "HEK-Mock cells; 5057DOX assay 1, 72 hour incubation, read-out: EC50 (prodrug alone)", "value": 480, "unit": "nM"}, {"measurement": "EC50", "setting": "HEK-Mock cells; 5057DOX assay 2, 72 hour incubation, read-out: EC50 (prodrug + 25 nM FAP)", "value": 26, "unit": "nM"}, {"measurement": "EC50", "setting": "HEK-Mock cells; [3]", "value": 220, "unit": "nM"}, {"measurement": "EC50", "setting": "HEK-Mock cells; [4]", "value": 9800, "unit": "nM"}, {"measurement": "EC50", "setting": "HEK-Mock cells; [5]", "value": 460, "unit": "nM"}, {"measurement": "EC50", "setting": "HEK-Mock cells; [6]", "value": "> 10000", "unit": "nM"}, {"measurement": "EC50", "setting": "HEK-Mock cells; [7]", "value": "> 100000", "unit": "nM"}, {"measurement": "EC50", "setting": "HEK-Mock cells; [8]", "value": 2300, "unit": "nM"}, {"measurement": "EC50", "setting": "HEK-Mock cells; [9]", "value": "> 100000", "unit": "nM"}, {"measurement": "EC50", "setting": "HEK-Mock cells; [10]", "value": 1100, "unit": "nM"}, {"measurement": "Kcat(Vmax/[E])", "setting": "FAP [1]; 5057DOX assay 6, [FAP] 4.00 × 10^−9M", "value": "Kcat(Vmax/[E]) 1.30 sec^−1"}, {"measurement": "Vmax", "setting": "FAP [1]; 5057DOX assay 7, [FAP] 1 nM, Dox standards, Daunorubicin internal standard", "value": "Vmax 9.80 × 10^−10M/sec"}, {"measurement": "activation by FAP as compared to PREP", "setting": "FAP [2]", "value": "selectively activated by FAP as compared to PREP"}, {"measurement": "EC50", "setting": "OVCAR-3; [11]", "value": 1, "unit": "µM"}, {"measurement": "EC50", "setting": "OVCAR-3; [12]", "value": "> 100", "unit": "µM"}, {"measurement": "EC50", "setting": "OVCAR-3; read-out: EC50 (prodrug alone)", "value": "> 100", "unit": "µM"}, {"measurement": "EC50", "setting": "SK-OV-3; [11]", "value": 140, "unit": "nM"}, {"measurement": "EC50", "setting": "SK-OV-3; [12]", "value": 56000, "unit": "nM"}, {"measurement": "EC50", "setting": "SK-OV-3; read-out: EC50 (prodrug alone)", "value": 830, "unit": "nM"}, {"measurement": "EC50", "setting": "MCF-7; [11]", "value": 23, "unit": "µM"}, {"measurement": "EC50", "setting": "MCF-7; [12]", "value": "> 100", "unit": "µM"}, {"measurement": "EC50", "setting": "MCF-7; read-out: EC50 (prodrug alone)", "value": "> 100", "unit": "µM"}]}]}
